Literature values, collected in US8193152B2 (priority 2004, dated 2012).
Like-named read-outs stand apart in the source and are kept apart here.

Assays:
[1] = system: thymocyte and lymphocyte
[2] = system: spleen lymphocytes
[3] = system: bone marrow cells
[4] = in vivo
[5] = in vivo; remark: listed apart in the source
[6] = system: mycobacterial infection; settings: mouse, in vivo
[7] = system: mycobacteria; settings: human, in vivo
[8] = system: PIC; settings: guinea pig, in vivo
[9] = system: Machupo; settings: rhesus monkey, in vivo

Compound: N[C@H](CCC(=O)N[C@@H](Cc1c[nH]c2ccccc12)C(=O)O)C(=O)O [SCV-07, γ-D-glutamyl-L-tryptophan]
- Con-A-induced thymocyte and lymphocyte proliferation [1]: increases
- Con-A-induced interleukin-2 (IL-2) production [2]: increases
- IL-2 receptor expression [2]: increases
- expression of Thy-1.2 [3]: stimulates expression
- immunostimulatory effect [4]: strong immunostimulatory effect
- immunostimulatory effect [5]: strong immunostimulatory effect
- IFNγ production by Con-A-induced spleen cells [6]: higher
- IL-4 production by Con-A-induced spleen cells [6]: lower
- Phagocytic activity by peritoneal macrophages [6]: markedly increased
- lung damage [6]: significantly decrease
- cavity healing and symptoms of tuberculosis [7]: positive effect
- drug-induced adverse effects [7]: without any drug-induced adverse effects
- incidence of mycobacteria-negative sputum cultures [7]: increased

Compound: NC(=O)c1ncn([C@@H]2O[C@H](CO)[C@@H](O)[C@H]2O)n1 [ribavirin, Ribavirin, reference compound]
- time to death [8]: prolonged

Compound: IFNα
- mortality [8]: No significant improvement in mortality

Compound: poly (ICLC)
- Overall mortality and time to death [9]: not improved
- viremia [9]: significantly higher
